From PubChem BioAssay AID200 (DTP/NCI, 2004)
“And” between values parts separate entries of the source, which are not always exact repeats. Equal values may be shown once. Inconclusive results and toxic doses are left out.

System: B6C3F1 mice, B16 melanoma ip, median survival T/C
Experiment: NCI In Vivo Anticancer Drug Screen. Data for tumor model B16 Melanoma (intraperitoneal) in B6C3F1 mice
Details: endpoint: median survival time, higher = longer survival
Procedure, shortened: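 Antitumor effect was judged in mice with transplanted tumors by dividing the treated group's survival measure by that of vehicle controls.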

[1] = dose: 50.0 mg/kg/injection, schedule: Q01DX009 (ip), vehicle: Klucel (hydroxypropylcellulose) (HPC)
[2] = dose: 100.0 mg/kg/injection, schedule: Q01DX009 (ip), vehicle: Klucel (hydroxypropylcellulose) (HPC)
[3] = dose: 200.0 mg/kg/injection, schedule: Q01DX009 (ip), vehicle: Klucel (hydroxypropylcellulose) (HPC)

In the case of C[C@@]1(CO)[C@H](O)CC[C@@]2(C)[C@H]1CC[C@H]1C[C@@H]3C[C@@]12CC[C@@]3(O)COC(=O)CN, the T/C (dose: 0.02 mg/kg/injection, schedule: Q01DX009 (ip), vehicle: saline + alcohol) is reported as 98 % of control, the T/C (dose: 0.37 mg/kg/injection, schedule: Q01DX009 (ip), vehicle: saline + alcohol) is reported as 94 % of control and the T/C (dose: 0.4 mg/kg/injection, schedule: Q01DX009 (ip), vehicle: saline + alcohol) is reported as 102 % of control. For the same molecule, the T/C (dose: 0.75 mg/kg/injection, schedule: Q01DX009 (ip), vehicle: saline + alcohol) was 98 % of control, the T/C (dose: 0.8 mg/kg/injection, schedule: Q01DX009 (ip), vehicle: saline + alcohol) was 124 % of control and the T/C (dose: 1.5 mg/kg/injection, schedule: Q01DX009 (ip), vehicle: saline + alcohol) was 101 % of control. The T/C (dose: 1.6 mg/kg/injection, schedule: Q01DX009 (ip), vehicle: saline + alcohol) was 101 % of control, the T/C (dose: 1.7 mg/kg/injection, schedule: Q01DX005 (iv), vehicle: saline + alcohol) was 108 % of control and the T/C (dose: 2.1 mg/kg/injection, schedule: Q01DX001 (iv), vehicle: saline + alcohol) was 111 % of control. The T/C (dose: 2.1 mg/kg/injection, schedule: Q03HX008 (ip), vehicle: saline + alcohol) was 120 % of control, the T/C (dose: 2.8 mg/kg/injection, schedule: Q03HX024 (ip), vehicle: saline + alcohol) was 97 % of control and the T/C (dose: 3.0 mg/kg/injection, schedule: Q01DX009 (ip), vehicle: saline + alcohol) was 102 % of control. The T/C (dose: 3.4 mg/kg/injection, schedule: Q01DX005 (iv), vehicle: saline + alcohol) was 99 % of control, the T/C (dose: 4.2 mg/kg/injection, schedule: Q01DX001 (iv), vehicle: saline + alcohol) was 103 % of control and the T/C (dose: 4.2 mg/kg/injection, schedule: Q03HX008 (ip), vehicle: saline + alcohol) was 119 % of control. For the same molecule, the T/C (dose: 5.0 mg/kg/injection, schedule: Q03HX027 (ip), vehicle: saline + alcohol) was 113 % of control and 105 % of control and 107 % of control, the T/C (dose: 5.0 mg/kg/injection, schedule: Q03HX027 (sc), vehicle: saline + alcohol) was 109 % of control and the T/C (dose: 5.6 mg/kg/injection, schedule: Q03HX024 (ip), vehicle: saline + alcohol) was 116 % of control. The T/C (dose: 6.0 mg/kg/injection, schedule: Q01DX009 (ip), vehicle: saline + alcohol) was 93 % of control, the T/C (dose: 6.75 mg/kg/injection, schedule: Q01DX005 (ip), vehicle: saline + alcohol) was 95 % of control and the T/C (dose: 6.8 mg/kg/injection, schedule: Q01DX005 (iv), vehicle: saline + alcohol) was 96 % of control. The T/C (dose: 8.4 mg/kg/injection, schedule: Q03HX008 (ip), vehicle: saline + alcohol) was 114 % of control, the T/C (dose: 8.5 mg/kg/injection, schedule: Q01DX001 (iv), vehicle: saline + alcohol) was 109 % of control and the T/C (dose: 10.0 mg/kg/injection, schedule: Q03HX027 (ip), vehicle: saline + alcohol) was 117 % of control and 123 % of control. For the same molecule, the T/C (dose: 10.0 mg/kg/injection, schedule: Q03HX027 (sc), vehicle: saline) was 102 % of control, the T/C (dose: 12.5 mg/kg/injection, schedule: Q01DX009 (ip), vehicle: saline + alcohol) was 111 % of control and 120 % of control and the T/C (dose: 13.5 mg/kg/injection, schedule: Q01DX005 (ip), vehicle: saline + alcohol) was 104 % of control. The T/C (dose: 15.0 mg/kg/injection, schedule: Q01DX009 (ip), vehicle: saline + alcohol) was 116 % of control, the T/C (dose: 16.8 mg/kg/injection, schedule: Q03HX008 (ip), vehicle: saline + alcohol) was 114 % of control and the T/C (dose: 16.9 mg/kg/injection, schedule: Q01DX001 (ip), vehicle: saline + alcohol) was 103 % of control. For the same molecule, the T/C (dose: 16.9 mg/kg/injection, schedule: Q01DX001 (iv), vehicle: saline + alcohol) was 103 % of control, the T/C (dose: 20.0 mg/kg/injection, schedule: Q03HX027 (ip), vehicle: saline + alcohol) was 162 % of control and the T/C (dose: 20.0 mg/kg/injection, schedule: Q03HX027 (sc), vehicle: saline + alcohol) was 108 % of control. For the same molecule, the T/C (dose: 20.0 mg/kg/injection, schedule: Q03HX027 (sc), vehicle: saline) was 100 % of control, the T/C (dose: 22.5 mg/kg/injection, schedule: Q04DX003 (ip), vehicle: saline + alcohol) was 98 % of control and the T/C (dose: 25.0 mg/kg/injection, schedule: Q01DX009 (ip), vehicle: saline + alcohol) was 121 % of control and 122 % of control. The T/C (dose: 27.0 mg/kg/injection, schedule: Q01DX005 (ip), vehicle: saline + alcohol) was 124 % of control, the T/C (dose: 27.0 mg/kg/injection, schedule: Q01DX005 (iv), vehicle: saline + alcohol) was 105 % of control and the T/C (dose: 30.0 mg/kg/injection, schedule: Q01DX009 (ip), vehicle: saline + alcohol) was 124 % of control. The T/C (dose: 30.0 mg/kg/injection, schedule: Q01DX009 (oral), vehicle: saline + alcohol) was 115 % of control, the T/C (dose: 33.7 mg/kg/injection, schedule: Q03HX008 (ip), vehicle: saline + alcohol) was 115 % of control and the T/C (dose: 33.8 mg/kg/injection, schedule: Q01DX001 (ip), vehicle: saline + alcohol) was 110 % of control. For the same molecule, the T/C (dose: 33.8 mg/kg/injection, schedule: Q01DX001 (iv), vehicle: saline + alcohol) was 115 % of control, the T/C (dose: 40.0 mg/kg/injection, schedule: Q03HX027 (ip), vehicle: saline + alcohol) was 175 % of control and 176 % of control and the T/C (dose: 40.0 mg/kg/injection, schedule: Q03HX027 (sc), vehicle: saline + alcohol) was 98 % of control. For the same molecule, the T/C (dose: 40.0 mg/kg/injection, schedule: Q03HX027 (sc), vehicle: saline) was 102 % of control, the T/C (dose: 45.0 mg/kg/injection, schedule: Q04DX003 (ip), vehicle: saline + alcohol) was 92 % of control and the T/C (dose: 50.0 mg/kg/injection, schedule: Q01DX009 (ip), vehicle: saline + alcohol) was 151 % of control. The T/C (dose: 54.0 mg/kg/injection, schedule: Q01DX005 (ip), vehicle: saline + alcohol) was 113 % of control, the T/C (dose: 54.0 mg/kg/injection, schedule: Q01DX005 (iv), vehicle: saline + alcohol) was 115 % of control and the T/C (dose: 60.0 mg/kg/injection, schedule: Q01DX009 (oral), vehicle: saline + alcohol) was 117 % of control. The T/C (dose: 67.5 mg/kg/injection, schedule: Q01DX001 (ip), vehicle: saline + alcohol) was 104 % of control, the T/C (dose: 67.5 mg/kg/injection, schedule: Q01DX001 (iv), vehicle: saline + alcohol) was 105 % of control and the T/C (dose: 80.0 mg/kg/injection, schedule: Q03HX027 (sc), vehicle: saline + alcohol) was 121 % of control. The T/C (dose: 80.0 mg/kg/injection, schedule: Q03HX027 (sc), vehicle: saline) was 102 % of control, the T/C (dose: 90.0 mg/kg/injection, schedule: Q04DX003 (ip), vehicle: saline + alcohol) was 91 % of control and the T/C (dose: 240.0 mg/kg/injection, schedule: Q01DX009 (oral), vehicle: saline + alcohol) was 114 % of control. The T/C (dose: 36.0 micrograms per hour, schedule: Q#X X216 (sc), vehicle: saline) was 100 % of control, the T/C (dose: 72.0 micrograms per hour, schedule: Q#X X216 (sc), vehicle: saline) was 102 % of control and the T/C (dose: 144.0 micrograms per hour, schedule: Q#X X216 (sc), vehicle: saline) was 118 % of control.

For COc1cc2c(c(OC)c1O)-c1ccc(SC)c(=O)cc1C(NC(C)=O)CC2 (stereo unspecified), the T/C (dose: 2.5 mg/kg/injection, schedule: Q01DX009 (ip), vehicle: water) was 119 % of control, the T/C (dose: 5.0 mg/kg/injection, schedule: Q01DX009 (ip), vehicle: water) was 119 % of control and the T/C (dose: 10.0 mg/kg/injection, schedule: Q01DX009 (ip), vehicle: water) was 116 % of control. The T/C (dose: 20.0 mg/kg/injection, schedule: Q01DX009 (ip), vehicle: water) was 119 % of control and the T/C (dose: 40.0 mg/kg/injection, schedule: Q01DX009 (ip), vehicle: water) was 122 % of control.

With CCCCS(=N)(=O)CC[C@H](N)C(=O)O (stereo partly specified) the T/C (dose: 445.0 mg/kg/injection, schedule: Q04HX012 (ip), vehicle: water) was 104 % of control and the T/C (dose: 890.0 mg/kg/injection, schedule: Q04HX012 (ip), vehicle: water) was 107 % of control.

With O=c1ccn(C2OC(CO)C(O)C2O)c(=O)[nH]1 (stereo unspecified) the T/C (dose: 12.5 mg/kg/injection, schedule: Q01DX009 (ip), vehicle: Klucel (hydroxypropylcellulose) (HPC)) was 97 % of control, the T/C (dose: 25.0 mg/kg/injection, schedule: Q01DX009 (ip), vehicle: Klucel (hydroxypropylcellulose) (HPC)) was 99 % of control and the T/C [1] was 104 % of control. For the same molecule, the T/C [2] was 95 % of control, the T/C [3] was 99 % of control and the T/C (dose: 400.0 mg/kg/injection, schedule: Q01DX009 (ip), vehicle: Klucel (hydroxypropylcellulose) (HPC)) was 102 % of control. For the same molecule, the T/C (dose: 800.0 mg/kg/injection, schedule: Q01DX009 (ip), vehicle: Klucel (hydroxypropylcellulose) (HPC)) was 102 % of control.

With O=c1[nH]cc(O)c(=O)[nH]1 the T/C [1] was 102 % of control, the T/C [2] was 96 % of control and the T/C [3] was 103 % of control.

For Nc1nc([Se]c2nc(N)nc3c2ncn3C2OC(CO)C(O)C2O)c2ncn(C3OC(CO)C(O)C3O)c2n1 (stereo unspecified), the T/C (dose: 25.0 mg/kg/injection, schedule: Q01DX009 (ip), vehicle: distilled water + Tween-80) was 108 % of control, the T/C (dose: 50.0 mg/kg/injection, schedule: Q01DX009 (ip), vehicle: distilled water + Tween-80) was 112 % of control and the T/C (dose: 100.0 mg/kg/injection, schedule: Q01DX009 (ip), vehicle: distilled water + Tween-80) was 89 % of control. For the same molecule, the T/C (dose: 200.0 mg/kg/injection, schedule: Q01DX009 (ip), vehicle: distilled water + Tween-80) was 87 % of control.
